Assays:
COX-1 = COX-1 (Homo sapiens, UniProt P23219); conditions: known; cited from earlier work
COX-2 = biological target: T1, COX-2 (Homo sapiens, UniProt P35354); conditions: known; cited from earlier work
T1 sequence (P35354 18-604): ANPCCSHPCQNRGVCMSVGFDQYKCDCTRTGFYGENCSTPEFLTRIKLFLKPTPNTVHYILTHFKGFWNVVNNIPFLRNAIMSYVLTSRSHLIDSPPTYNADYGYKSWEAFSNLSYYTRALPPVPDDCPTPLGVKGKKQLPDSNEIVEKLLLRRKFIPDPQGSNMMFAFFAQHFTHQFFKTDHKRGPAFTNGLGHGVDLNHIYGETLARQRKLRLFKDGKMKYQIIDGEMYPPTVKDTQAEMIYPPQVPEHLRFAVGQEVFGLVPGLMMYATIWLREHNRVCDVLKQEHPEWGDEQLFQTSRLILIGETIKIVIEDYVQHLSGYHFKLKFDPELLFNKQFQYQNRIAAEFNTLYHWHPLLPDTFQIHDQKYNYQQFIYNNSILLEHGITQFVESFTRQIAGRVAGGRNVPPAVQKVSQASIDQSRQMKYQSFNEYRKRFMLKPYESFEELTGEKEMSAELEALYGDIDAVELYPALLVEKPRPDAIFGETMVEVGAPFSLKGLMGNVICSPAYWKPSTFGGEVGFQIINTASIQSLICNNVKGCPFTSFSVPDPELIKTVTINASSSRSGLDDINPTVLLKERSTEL

[1] = system: BRMEC (Bovine Retinal Microvascular Endothelial Cell); assay: VEGF-induced BRMEC proliferation, modified MTT assay; assay type: cell-based
Experimental: VEGF-induced BRMEC proliferation was measured using a modified MTT assay, BRMEC were plated at 3×10^3 onto a fibronectin/hyaluronic acid matrix in 96-well plates (Coming). Growth medium was added for two days, followed by serum free medium (SFM) overnight, then by test medium containing 0 or 25 ng/ml VEGF in 100 μl of SFM. After 24 hours at 37° C./5%CO2, 25 μl of MTT (3-(4,5-dimethylthiazol-2-yl)-2,5-diphenyl tetrazolium bromide) was added to each well and incubated for 4 hours. 100 μl of lysis buffer (20%SDS in 50:50 DMF:H2O+2.0% acetic acid and 0.05%HCl) was then added to each well, and the plates were incubated overnight at 37° C. and read (SPECTRAmax 190, Molecular Devices; Sunnyvale, Calif.) at 570 nm. For experiments utilizing AL06295, 25 ng/ml VEGF was combined with the compound at 0.1, 0.3, 1.0 or 3 μM.

[2] = system: BRMEC (Bovine Retinal Microvascular Endothelial Cell); assay: VEGF-induced BRMEC capillary tube formation; assay type: cell-based
Experimental: A mixture of 8 vol of Vitrogen 100 (Cohesion; Palo Alto, Calif.), 1 vol. of 0.2N NaOH, and 1 vol. of 10× RPMI-1640 medium containing 5 μg/ml fibronectin and 5 μg/ml laminin was prepared and 400 μl was added to each well of a 24-well plate. After incubating for 3 hrs at 37° C. to solidify the gel, 10^4 BRMEC were added to each well and incubated in growth medium for 3 days. Then the medium was carefully aspirated and 200 μl of the gel solution was layered on top of the cells and incubated at 37° C. for 1 hr. Following addition of growth medium for 24 hrs, 2 ml of test medium containing serum-free (SF) medium plus VEGF or SF medium plus VEGF and AL06295A were added to each well. The gels were assessed 24 hrs later.
For quantitative analysis, six fields per treatment group were chosen from areas containing tubes; seven wells were used for each treatment. The lengths of the tubes were measured in digitized images, and the data are expressed in FIG. 2 as the total length per field of view in μm.

choroidal NV = choroidal NV in a mouse model, topical administration; assay type: in vivo; conditions: previous findings
[3] = dose-response fashion, bovine retinal microvascular endothelial cell assay

COX-1, sequence (P23219 24-599): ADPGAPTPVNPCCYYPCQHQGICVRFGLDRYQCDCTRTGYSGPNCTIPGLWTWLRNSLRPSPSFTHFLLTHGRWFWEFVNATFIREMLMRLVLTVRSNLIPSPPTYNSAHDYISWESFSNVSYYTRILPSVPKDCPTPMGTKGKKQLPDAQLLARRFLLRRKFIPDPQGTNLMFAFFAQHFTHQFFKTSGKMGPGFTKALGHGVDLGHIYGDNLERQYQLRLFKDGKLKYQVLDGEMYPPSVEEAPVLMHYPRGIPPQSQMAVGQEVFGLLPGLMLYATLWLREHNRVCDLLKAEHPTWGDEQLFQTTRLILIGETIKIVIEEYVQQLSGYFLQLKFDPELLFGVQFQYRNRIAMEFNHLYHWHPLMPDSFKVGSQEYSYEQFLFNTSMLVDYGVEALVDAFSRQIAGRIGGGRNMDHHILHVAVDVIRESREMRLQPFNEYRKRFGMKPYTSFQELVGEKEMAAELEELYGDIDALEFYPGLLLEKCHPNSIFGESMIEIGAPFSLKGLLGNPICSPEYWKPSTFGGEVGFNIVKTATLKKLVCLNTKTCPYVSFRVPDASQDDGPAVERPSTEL

Compound	activity of COX-1 enzyme (COX-1)	activity of COX-2 enzyme (COX-2)	VEGF induced BRMEC proliferation ([1]; 1 and 3 μM doses, 25 ng/ml VEGF, 24 hours, FIG. 1)	VEGF-induced cell proliferation [1, 3]	VEGF induced capillary tube formation in BRMECs (total tube length per field of view) ([2]; all doses, SF medium plus VEGF, assessed 24 hrs later, FIG. 2)	VEGF-induced capillary tube formation [2, 3]	choroidal NV (choroidal NV)
2-amino-3-benzoylbenzene acetic acid [amfenac]	potently inhibit	potently inhibit	significantly reduce	inhibit	significantly and potently inhibit	inhibit	
NC(=O)Cc1cccc(C(=O)c2ccccc2)c1N [nepafenac]							inhibited
